Patent US20220160688A1, “INHIBITION OF NAMPT AND/OR SARM1 FOR THE TREATMENT OF AXONAL DEGRADATION” (THE JOHNS HOPKINS UNIVERSITY, priority 2019, published 2022)
Entries after “also recorded” stand apart in the source; their conditions may differ.

Legend:
[1] = system: Mouse dorsal root ganglion (DRG) cells; test: Microfluidic based axon degeneration assay (axotomy, degeneration index); format: cell-based; settings: for efficacy against Wallerian degeneration compared with FK866: tested at different concentrations; for Optimized Concentration used (from dose response curves): tested 2 hours following axotomy
Procedure: A poly-dimethylsiloxane (PDMS)-based microfluidic device described by Hosmane and colleagues was used for these experiments (see, FIG. 16) (see, Hosmane, et al., Lab Chip 2010, 10, 741-747). This device provisions a perikaryal compartment where nerve cells are first placed and a juxtaposed array of 200 microchannels towards which axons grow and through which they traverse to reach a third axonal compartment. Mouse dorsal root ganglion (DRG) cells were prepared from E12-13 embryos and plated to the perikaryal compartment. After 6-7 days of culture at 37° C. and 5% CO2, axons were cut using a razor blade with vehicle or reagents. Images of the axonal compartment were taken at various time intervals at 20× magnification. Images were then analyzed for degeneration index (DI) which indicates percentage of fragmented axons over total axonal area, and drug-treated axons were compared to vehicle treated or uninjured axons. Live time-lapse images were taken as needed.

[2] = system: IA-injured Thy1-eYFP-H mice; test: CLARITY-based counts of axonal lesions in the CST after impact acceleration (IA) injury; format: in vivo, mouse; settings: FK866 10 mg/kg i.p. immediately after injury then every 6 h, vs vehicle
Source text: IA injury was produced under gas anesthesia with 2% isoflurane. Under aseptic conditions and with the subject in a small-animal stereotactic frame, a 5-mm-diameter steel disc was glued on the exposed cranium between bregma and lambda to prevent skull fracture. The mouse was then placed prone on a foam bed under a hollow Plexiglas tube and secured with tape as described previously (see, Xu L, (2016) Exp Neurol 275:436-449). Injury was produced by dropping a brass weight from a height of 1 m through the Plexiglas tube onto the disk. In all cases except the impact dose-response study outlined below, that weight was 60 g. The foam bed was pulled immediately at the rebound of the weight off the metal disc, such as to prevent a second impact. The metal disc was then removed, scalp incision was closed with surgical staples, and the animal returned to cage for full recovery. Subjects with skull fractures confirmed with a surgical microscope were excluded from the study. […]
For 3D visualization and quantitative analysis of axonal injury of cleared brainstems, we used the software suite Imaris (Bitplane). […] For the detection and quantification of axonal swellings based on YFP and APP, the spot detection function for the whole CST volume from the pons to the pyramidal decussation or cervical spinal cord was used. […]

[3] = system: mice injured with impact-acceleration; test: Pellet-reaching task after impact-acceleration traumatic brain injury; format: in vivo, mouse; settings: drug administered continuously for 14 days post injury (osmotic pump); vs vehicle-treated mice
Procedure: Experiments were conducted to characterize the effects of SARM1 deletion or pharmacological SARM1 blockade on corticospinal-dependent motor deficits after traumatic brain injury (impact-acceleration). This was tested on the pellet-reaching task, i.e. the golden-standard to assess skilled function of the forelimbs in rodents relevant to a similar task used to assess fine motor function in humans. Specifically, experiments trained mice for 2 weeks before TBI in order to reach peak performance in the task. At that point the trained mice were injured with impact-acceleration. Experiments next measured their performance every day for two weeks post injury and comparisons were made between groups of mice administered FK866 and vehicle treated mice (control group).
Mice were placed under food restriction or 2 days to lose approximately 10% of their body weight. Following this, the shaping phase of the experiment was initiated: two mice were placed in the training chamber comprised of a clear Plexiglas chamber with ample food for 20 minutes for the first day, whereas one mouse was placed in the same chamber on day 2. The training chamber has a single slit through which the mouse can retrieve a pellet of food placed on the outside right in front of the slit. […] Retrieval attempts were recorded and characterized as successful only if a mouse retrieved the pellet and put it in its mouth. […]

Row | SMILES | efficacy against Wallerian degeneration compared with FK866 ([1]; axotomized DRG axons) | Optimized Concentration used (from dose response curves) [1] | other results
1 | N#CN=C(NCCCCCCOc1ccc(Cl)cc1)Nc1ccncc1 [CHS-828] | comparably strong efficacy | 250 nM | 
2 | O=C(/C=C/c1cccnc1)NCCCCC1CCN(C(=O)c2ccccc2)CC1 [FK866] |  | 100 nM | number (density) of axonal lesions per anatomical segment (CST×RST, pyramidal decussation, cervical cord) ([2]; 24 h after injury): significantly lower number of axonal lesions; total number of axonal lesions in the CST from the pons to cervical spinal cord ([2]; counted 24 h after injury, 10 mg/kg): significantly lower number of axonal lesions; also recorded: smaller number of axonal lesions; optimal therapeutic window of treatment onset ([1]; FK866 given at 0, 2, 4, 6 hours following injury): within two to six hours of injury; delay of further fragmentation ([1]; axotomized DRG axons, treatment after the onset of visible fragmentation): still effective in delaying further fragmentation; protection against Wallerian degeneration (degeneration index) ([1]; axotomized DRG axons, treatment at 2 hours post-injury): Maximum protection against WD; skilled motor function (pellet-reaching performance) [3]: significant preservation of skilled motor function; also recorded: maintain their pellet-reaching skill
3 | O=C(CCCCCCCn1cc(-c2cccnc2)nn1)Nc1ccccc1-c1ccccc1 [GPP78] | comparably strong efficacy | 1000 nM | 
4 | NC(=O)c1ccc[n+]([C@@H]2O[C@H](CO)[C@@H](O)[C@H]2O)c1 [NAR, nicotinamide riboside] |  |  | effect of added NAR on the protective effect of FK866 ([1]; FK866 and/or NAR at the time of injury): further augmented the protective effect of FK866
5 | NC(=O)c1ccc[n+]([C@@H]2O[C@H](COP(=O)([O-])O)[C@@H](O)[C@H]2O)c1 [NMN, nicotinamide mononucleotide] |  |  | effect of added NMN on the protection by NAMPT inhibition (FK866) ([1]; FK866 at time of injury, NMN added 0, 2, 4 hours post axotomy): reversed
6 | CC(C)(C)c1ccc(S(=O)(=O)NCc2ccc(C(=O)Nc3cccnc3)cc2)cc1 [STF31] | comparably strong efficacy | 2000 nM | 
7 | Cc1ccc(S(=O)(=O)Cc2nc(-c3ccc(C(=O)NCc4cccnc4)cc3)oc2C)cc1 [STF118804] | comparably strong efficacy | 250 nM | 
